Measured values reported in US20230117470A1, “SUBSTITUTED PYRAZOLE COMPOUNDS AS TOLL RECEPTOR INHIBITORS” (BRISTOL-MYERS SQUIBB COMPANY, priority 2019, published 2023).

Assays:
Assay type in all cases: cell-based
human TLR8 = target: T1, human TLR8 (Homo sapiens, UniProt Q9NR97); assay: TLR8 inhibition reporter assay (HEK-Blue cells, SEAP reporter, R848 stimulation); details: HEK-Blue cells overexpressing human TLR8, SEAP reporter, R848 15.9 μM
T1 construct: host or cells: HEK-Blue cells
T1 sequence (Q9NR97 27-1041): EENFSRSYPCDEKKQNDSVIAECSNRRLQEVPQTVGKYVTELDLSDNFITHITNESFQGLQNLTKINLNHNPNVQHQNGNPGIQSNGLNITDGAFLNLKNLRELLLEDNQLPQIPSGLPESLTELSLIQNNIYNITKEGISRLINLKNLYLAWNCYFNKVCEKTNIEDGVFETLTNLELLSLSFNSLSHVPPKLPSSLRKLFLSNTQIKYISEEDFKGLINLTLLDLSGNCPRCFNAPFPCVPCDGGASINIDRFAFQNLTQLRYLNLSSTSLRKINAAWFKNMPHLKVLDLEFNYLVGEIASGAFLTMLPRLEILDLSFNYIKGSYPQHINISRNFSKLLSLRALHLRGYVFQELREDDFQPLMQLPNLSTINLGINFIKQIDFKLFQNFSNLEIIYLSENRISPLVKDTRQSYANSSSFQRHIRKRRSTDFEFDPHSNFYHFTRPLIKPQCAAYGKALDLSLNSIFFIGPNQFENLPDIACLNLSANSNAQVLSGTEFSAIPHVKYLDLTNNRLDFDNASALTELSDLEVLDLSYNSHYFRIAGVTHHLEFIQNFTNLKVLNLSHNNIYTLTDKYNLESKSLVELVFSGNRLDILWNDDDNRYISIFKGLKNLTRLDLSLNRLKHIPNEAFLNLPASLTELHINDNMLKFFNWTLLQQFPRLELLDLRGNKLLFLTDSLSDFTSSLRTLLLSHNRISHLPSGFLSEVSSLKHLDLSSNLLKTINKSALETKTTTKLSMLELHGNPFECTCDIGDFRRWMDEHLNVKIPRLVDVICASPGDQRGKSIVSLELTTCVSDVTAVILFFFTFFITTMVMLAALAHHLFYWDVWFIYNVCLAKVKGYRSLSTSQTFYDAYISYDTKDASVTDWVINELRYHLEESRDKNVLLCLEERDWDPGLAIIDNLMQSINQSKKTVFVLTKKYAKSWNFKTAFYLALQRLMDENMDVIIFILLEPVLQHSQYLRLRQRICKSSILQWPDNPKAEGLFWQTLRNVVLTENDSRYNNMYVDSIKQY
Method: (§1) TLR7/8/9 Inhibition Reporter Assays
(§2) HEK-Blue™-cells (Invivogen) overexpressing human TLR7, TLR8 or TLR9 receptors were used for screening inhibitors of these receptors using an inducible SEAP (secreted embryonic alkaline phosphatase) reporter gene under the control of the IFN-β minimal promoter fused to five NF-κB and AP-1-binding sites. Briefly, cells are seeded into Greiner 384 well plates (15000 cells per well for TLR7, 20,000 for TLR8 and 25,000 for TLR9) and then treated with test compounds in DMSO to yield a final dose response concentration range of 0.05 nM-50 μM. After a 30 minute compound pre-treatment at room temperature, the cells are then stimulated with a TLR7 ligand (gardiquimod at a final concentration of 7.5 μM), TLR8 ligand (R848 at a final concentration of 15.9 μM) or TLR9 ligand (ODN2006 at a final concentration of 5 nM) to activate NF-κB and AP-1 which induce the production of SLA After a 22 hour incubation at 37° C., […], SEAP levels are determined with the addition of HEK-Blue™ Detection reagent (Invivogen), a cell culture medium that allows for detection of SLAP, according to manufacturer's specifications. The percent inhibition is determined as the % reduction in the HEK-Blue signal present in wells treated with agonist plus DMSO alone compared to wells treated with a known inhibitor.

human TLR9 = target: T2, human TLR9 (Homo sapiens, UniProt Q9NR96); assay: TLR9 inhibition reporter assay (HEK-Blue cells, SEAP reporter, ODN2006 stimulation); details: HEK-Blue cells overexpressing human TLR9, SEAP reporter, ODN2006 5 nM
T2 construct: host or cells: HEK-Blue cells
T2 sequence (Q9NR96 26-1032): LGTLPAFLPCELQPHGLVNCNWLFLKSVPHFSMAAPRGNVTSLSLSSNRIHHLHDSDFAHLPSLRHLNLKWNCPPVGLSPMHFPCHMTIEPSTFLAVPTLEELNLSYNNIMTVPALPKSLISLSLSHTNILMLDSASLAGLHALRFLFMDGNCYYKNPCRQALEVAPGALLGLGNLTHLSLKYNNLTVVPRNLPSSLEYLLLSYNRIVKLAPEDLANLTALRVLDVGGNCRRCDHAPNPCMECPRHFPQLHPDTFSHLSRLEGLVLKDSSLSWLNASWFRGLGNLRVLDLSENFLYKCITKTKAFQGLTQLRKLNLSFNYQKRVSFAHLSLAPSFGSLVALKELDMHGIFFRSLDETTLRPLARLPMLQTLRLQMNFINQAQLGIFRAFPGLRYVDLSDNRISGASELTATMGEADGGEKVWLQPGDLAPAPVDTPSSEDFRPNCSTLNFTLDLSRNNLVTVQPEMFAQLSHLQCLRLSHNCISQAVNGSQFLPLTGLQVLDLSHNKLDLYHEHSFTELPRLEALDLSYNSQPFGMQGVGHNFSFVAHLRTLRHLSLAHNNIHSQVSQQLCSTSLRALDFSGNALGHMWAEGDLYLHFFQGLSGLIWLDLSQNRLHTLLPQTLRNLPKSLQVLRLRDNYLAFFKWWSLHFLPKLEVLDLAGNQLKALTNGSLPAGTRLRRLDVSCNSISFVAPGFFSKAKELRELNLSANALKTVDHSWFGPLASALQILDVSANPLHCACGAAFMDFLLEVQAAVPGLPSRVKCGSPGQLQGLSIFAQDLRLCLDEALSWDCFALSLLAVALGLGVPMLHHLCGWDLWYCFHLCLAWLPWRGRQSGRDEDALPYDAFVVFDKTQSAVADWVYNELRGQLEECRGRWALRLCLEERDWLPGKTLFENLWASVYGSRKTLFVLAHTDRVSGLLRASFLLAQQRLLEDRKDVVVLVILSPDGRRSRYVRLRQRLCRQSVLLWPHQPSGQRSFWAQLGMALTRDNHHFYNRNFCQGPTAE
Method: as §1, §2

human TLR7 = target: T3, human TLR7 (Homo sapiens, UniProt Q9NYK1); assay: TLR7 inhibition reporter assay (HEK-Blue cells, SEAP reporter, gardiquimod stimulation); details: HEK-Blue cells overexpressing human TLR7, SEAP reporter, gardiquimod 7.5 μM
T3 construct: host or cells: HEK-Blue cells
T3 sequence (Q9NYK1 27-1049): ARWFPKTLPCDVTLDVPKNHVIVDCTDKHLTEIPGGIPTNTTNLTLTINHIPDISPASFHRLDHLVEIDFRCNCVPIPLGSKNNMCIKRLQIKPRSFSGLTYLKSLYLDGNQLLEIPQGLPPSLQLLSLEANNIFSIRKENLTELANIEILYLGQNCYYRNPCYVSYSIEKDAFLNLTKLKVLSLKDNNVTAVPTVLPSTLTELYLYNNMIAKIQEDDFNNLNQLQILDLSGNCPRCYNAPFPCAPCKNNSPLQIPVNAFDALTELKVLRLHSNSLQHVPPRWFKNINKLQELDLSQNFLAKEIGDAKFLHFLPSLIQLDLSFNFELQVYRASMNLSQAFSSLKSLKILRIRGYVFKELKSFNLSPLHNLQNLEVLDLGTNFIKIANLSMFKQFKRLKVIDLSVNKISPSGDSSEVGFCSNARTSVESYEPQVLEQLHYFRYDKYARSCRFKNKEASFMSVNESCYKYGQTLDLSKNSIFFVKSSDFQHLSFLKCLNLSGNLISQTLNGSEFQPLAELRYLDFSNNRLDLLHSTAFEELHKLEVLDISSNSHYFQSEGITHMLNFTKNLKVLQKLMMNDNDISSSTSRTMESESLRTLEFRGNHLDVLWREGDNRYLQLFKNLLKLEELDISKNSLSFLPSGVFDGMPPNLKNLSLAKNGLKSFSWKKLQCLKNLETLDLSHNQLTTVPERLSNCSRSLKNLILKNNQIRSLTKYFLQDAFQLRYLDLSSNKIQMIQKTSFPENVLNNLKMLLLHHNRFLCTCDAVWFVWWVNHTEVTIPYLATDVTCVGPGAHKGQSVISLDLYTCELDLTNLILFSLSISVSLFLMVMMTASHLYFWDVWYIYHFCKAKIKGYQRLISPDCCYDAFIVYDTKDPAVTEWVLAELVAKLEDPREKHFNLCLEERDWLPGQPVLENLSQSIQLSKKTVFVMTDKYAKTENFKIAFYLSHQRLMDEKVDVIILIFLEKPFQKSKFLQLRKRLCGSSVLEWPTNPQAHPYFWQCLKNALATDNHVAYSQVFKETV
Method: as §1, §2

Structure (SMILES) | IC50 (human TLR8) [nM] | IC50 (human TLR9) [nM] | IC50 (human TLR7) [nM]
Cc1cc(-c2[nH]nc(C(=O)NC3CCN(CC(C)(C)O)CC3)c2C(C)C)cn2ncnc12 [Example 138] | 3.96 | 14800 | 0.93
Cc1cc(-c2[nH]nc(-c3ccc(NC(C)C)nc3)c2C(C)C)cn2ncnc12 [Example 240] | 2.82 | 6230 | 3.72
Cc1cc(-c2[nH]nc(C(=O)N(C)C3CCN(C)CC3)c2C(C)C)cn2ncnc12 [Example 6] | 20.9 | 1100 | 2.05
COc1cc(-c2[nH]nc(C(=O)NCC3CCNCC3)c2C(C)C)cn2ncnc12 [Example 62] | 22.3 | > 50000 | 88.6
Cc1cc(-c2[nH]nc(CN(C)C)c2C(C)C)cn2ncnc12 [Example 184, 1-(4-isopropyl-5-(8-methyl-[1,2,4]triazolo[1,5-a]pyridin-6-yl)-1H-pyrazol-3-yl)-N,N-dimethylmethanamine] | 0.84 | 11400 | 1.01
COc1cc(-c2[nH]nc(-c3nc4c(s3)CN(C)CC4)c2C(C)C)cn2ncnc12 [Example 262] | 17.5 | 18300 | 23.8
Cc1cc(-c2[nH]nc(C(=O)N[C@H]3CC[C@H](N(C)C)CC3)c2C(C)C)cn2ncnc12 [Example 82] | 43.6 | > 50000 | 4.69
COc1cc(-c2[nH]nc(C(=O)NC3CCN(C(C)C)CC3)c2C(C)C)cn2ncnc12 [Example 12] | 0.86 | 2150 | 1.59
Cc1cc(-c2[nH]nc(C(=O)NC3CN(C)C3)c2C(C)C)cn2ncnc12 [Example 156] | 0.09 | 10900 | 1.72
Cc1cc(-c2[nH]nc(C(=O)NC3CCN(C4CCOCC4)CC3)c2C(C)C)cn2ncnc12 [Example 153] | 6.62 | 22300 | 27.8
Cc1cc(-c2[nH]nc(-c3cc4n(n3)CCNC4)c2C(C)C)cn2ncnc12 [Example 217] | 5.3 | 5870 | 2.41
Cc1cc(-c2[nH]nc(C(=O)N(C)C3CCN(C)C3)c2C(C)C)cn2ncnc12 (stereo not drawn) [Example 25] | 10.3 | 447 | 25.6
Cc1cc(-c2[nH]nc(CNC3CCN(C(C)C)CC3)c2C(C)C)cn2ncnc12 [Example 186] | 0.21 | 5920 | 1.59

Results, then the compound that gave them:

IC50 (human TLR8) [nM] | IC50 (human TLR9) [nM] | IC50 (human TLR7) [nM] | Structure (SMILES)
> 3130 | 18800 | 1400 | Cc1cc(-c2[nH]nc(-c3ccc(C4CCN(C5COC5)CC4)cc3)c2C(C)C)cn2ncnc12 [Example 311]
7.16 | > 50000 | 24.3 | COCCNc1ccc2nc(-c3n[nH]c(-c4cc(C)c5ncnn5c4)c3C(C)C)sc2c1 [Example 267]
0.37 | 9220 | 0.9 | Cc1cc(-c2[nH]nc(C(=O)NC3CCNCC3)c2CC(F)(F)F)cn2ncnc12 [compound 194]
4.19 | 14400 | 6.67 | Cc1cc(-c2[nH]nc(-c3ccc(C4CCN(C)CC4)cc3)c2C(C)C)cn2ncnc12 [Example 309]
140 | > 50000 | 77.6 | COc1cc(-c2[nH]nc(-c3ccc(C4CCN(CC(N)=O)CC4)cn3)c2C(C)C)cn2ncnc12 [Example 393]
4.67 | 35800 | 15.7 | COc1cc(-c2[nH]nc(-c3ccc(C4CCN(CC(N)=O)CC4)cc3)c2C(C)C)cn2ncnc12 [compound 322]
215 | 37700 | 77.5 | Cc1cc(-c2[nH]nc(-c3ccc(N4CC(N(C)C)C4)cc3)c2C(C)C)cn2ncnc12 [Example 405, 1-(4-(4-isopropyl-5-(8-methyl-[1,2,4]triazolo[1,5-a]pyridin-6-yl)-1H-pyrazol-3-yl)phenyl)-N,N-dimethylazetidin-3-amine]
7.11 | 15800 | 7.5 | Cc1cc(-c2[nH]nc(-c3ccc(C4CN(C(C)C)C4)cc3)c2C(C)C)cn2ncnc12 [Example 327]
3.86 | 36600 | 19.9 | COc1cc(-c2[nH]nc(-c3ccc(C4CCNCC4)cn3)c2C(C)C)cn2ncnc12 [Example 339, 6-(4-isopropyl-3-(5-(piperidin-4-yl)pyridin-2-yl)-1H-pyrazol-5-yl)-8-methoxy-[1,2,4]triazolo[1,5-a]pyridine]
